Test results from patent publication US10758534B2 (Vertex Pharmaceuticals Incorporated, priority 2014, dated 2020).
Where two headings read alike, the source gives them in different places.

Molecular target: T1, F508del (Homo sapiens, UniProt P13569, DEL508-508)
T1 construct: expressed in transfected cells
Assay: Protocol 2: FRET membrane potential optical assay (VIPR), identification of correction compounds
Format: cell-based
In short: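 Correction of the F508del trafficking defect is scored as forskolin (10 μM)/genistein (20 μM)-stimulated Cl^− efflux in NIH3T3 mouse fibroblasts after a 16 hr, 37° C. compound exposure. Depolarization was followed optically using voltage-sensing FRET dyes.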

[1] = F508del CFTR modulator activity, compounds of Table 1, read-out: EC30

T1 sequence (P13569 with tags, fused parts or gaps DEL508-508): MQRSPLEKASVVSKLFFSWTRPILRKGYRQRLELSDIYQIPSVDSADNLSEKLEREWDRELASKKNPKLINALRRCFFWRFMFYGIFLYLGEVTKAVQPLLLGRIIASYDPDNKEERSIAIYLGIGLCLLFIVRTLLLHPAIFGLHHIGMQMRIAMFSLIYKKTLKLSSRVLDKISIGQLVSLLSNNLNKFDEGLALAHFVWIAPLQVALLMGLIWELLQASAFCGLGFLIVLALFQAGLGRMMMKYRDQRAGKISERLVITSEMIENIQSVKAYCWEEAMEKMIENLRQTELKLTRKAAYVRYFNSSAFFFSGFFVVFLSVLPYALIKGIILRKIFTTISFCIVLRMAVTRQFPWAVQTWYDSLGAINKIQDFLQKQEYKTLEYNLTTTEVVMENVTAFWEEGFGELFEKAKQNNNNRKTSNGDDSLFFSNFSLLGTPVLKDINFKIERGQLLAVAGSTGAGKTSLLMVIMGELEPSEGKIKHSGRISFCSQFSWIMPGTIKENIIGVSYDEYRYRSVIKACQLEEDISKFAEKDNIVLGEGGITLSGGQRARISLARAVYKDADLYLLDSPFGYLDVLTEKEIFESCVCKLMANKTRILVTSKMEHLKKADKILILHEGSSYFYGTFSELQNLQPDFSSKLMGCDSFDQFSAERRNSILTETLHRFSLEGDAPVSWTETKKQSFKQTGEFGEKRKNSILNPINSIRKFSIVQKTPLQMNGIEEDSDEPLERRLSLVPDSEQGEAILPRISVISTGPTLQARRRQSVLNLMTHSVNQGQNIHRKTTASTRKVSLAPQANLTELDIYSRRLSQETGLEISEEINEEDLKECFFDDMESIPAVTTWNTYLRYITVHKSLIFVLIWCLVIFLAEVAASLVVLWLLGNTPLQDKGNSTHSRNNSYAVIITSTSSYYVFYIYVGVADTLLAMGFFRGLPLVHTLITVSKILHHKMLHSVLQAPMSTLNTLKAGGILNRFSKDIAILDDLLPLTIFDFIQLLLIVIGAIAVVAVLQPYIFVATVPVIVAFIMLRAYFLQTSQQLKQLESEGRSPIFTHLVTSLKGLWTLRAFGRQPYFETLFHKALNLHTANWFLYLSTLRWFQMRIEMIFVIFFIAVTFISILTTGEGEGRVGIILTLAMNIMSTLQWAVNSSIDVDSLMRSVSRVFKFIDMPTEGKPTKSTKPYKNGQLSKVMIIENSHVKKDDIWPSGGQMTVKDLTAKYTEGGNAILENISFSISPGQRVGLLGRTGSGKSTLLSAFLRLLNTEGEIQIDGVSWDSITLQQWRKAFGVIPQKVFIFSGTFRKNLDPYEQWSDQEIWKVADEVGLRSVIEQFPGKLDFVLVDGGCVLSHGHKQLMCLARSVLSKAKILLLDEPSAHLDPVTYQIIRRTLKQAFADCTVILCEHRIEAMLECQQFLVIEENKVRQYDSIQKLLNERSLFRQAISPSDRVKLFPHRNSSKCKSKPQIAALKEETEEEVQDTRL

SMILES | EC30 [1] [nM] | also measured
CC(C)Oc1cnn(-c2ccc(C(=O)NS(=O)(=O)c3cccc(N)n3)c(N3C[C@@H](C)CC3(C)C)n2)c1 [Compound 2658, N-[(6-amino-2-pyridyl)sulfonyl]-6-(4-isopropoxypyrazol-1-yl)-2-[(4S)-2,2,4-trimethylpyrrolidin-1-yl]pyridine-3-carboxamide] | 3000 to 10000 | –
CC1CN(c2ncccc2C(=O)NS(=O)(=O)c2cccc(Nc3ccccc3C#N)n2)C(C)(C)C1 (stereo not drawn) [Compound 2659, N—[[6-(2-cyanoanilino)-2-pyridyl]sulfonyl]-2-(2,2,4-trimethylpyrrolidin-1-yl)pyridine-3-carboxamide] | 3000 to 10000 | –
Cc1ccc(F)cc1-c1ccc(C(=O)NS(=O)(=O)c2cccnc2N)c(N2C[C@@H](C)CC2(C)C)n1 [Compound 2660, N-[(2-amino-3-pyridyl)sulfonyl]-6-(5-fluoro-2-methyl-phenyl)-2-[(4S)-2,2,4-trimethylpyrrolidin-1-yl]pyridine-3-carboxamide] | < 3000 | –
COc1ccc(CNc2cccc(S(=O)(=O)NC(=O)c3cccnc3N3CC(C)CC3(C)C)n2)cc1OC (stereo not drawn) [Compound 2662, N—[[6-[(3,4-dimethoxyphenyl)methylamino]-2-pyridyl]sulfonyl]-2-(2,2,4-trimethylpyrrolidin-1-yl)pyridine-3-carboxamide] | 3000 to 10000 | –
CC1CN(c2ncccc2C(=O)NS(=O)(=O)c2cccc(Oc3cc(Cl)cc(Cl)c3)n2)C(C)(C)C1 (stereo not drawn) [Compound 2663, N—[[6-(3,5-dichlorophenoxy)-2-pyridyl]sulfonyl]-2-(2,2,4-trimethylpyrrolidin-1-yl)pyridine-3-carboxamide] | < 3000 | –
COc1ccc(-c2ccc(C(=O)NS(=O)(=O)c3cccnc3N)c(N3C[C@@H](C)CC3(C)C)n2)cc1OC [Compound 2664, N-[(2-amino-3-pyridyl)sulfonyl]-6-(3,4-dimethoxyphenyl)-2-[(4S)-2,2,4-trimethylpyrrolidin-1-yl]pyridine-3-carboxamide] | < 3000 | –
CCOc1cc(-c2ccc(C(=O)NS(=O)(=O)c3cccnc3N)c(N3C[C@@H](C)CC3(C)C)n2)ccc1F [Compound 2665, N-[(2-amino-3-pyridyl)sulfonyl]-6-(3-ethoxy-4-fluoro-phenyl)-2-[(4S)-2,2,4-trimethylpyrrolidin-1-yl]pyridine-3-carboxamide] | < 3000 | –
COc1ccccc1-c1ccc(C(=O)NS(=O)(=O)N2CC[C@H](N)C2)c(N2C[C@@H](C)CC2(C)C)n1 [Compound 2666, N-[(3S)-3-aminopyrrolidin-1-yl]sulfonyl-6-(2-methoxyphenyl)-2-[(4S)-2,2,4-trimethylpyrrolidin-1-yl]pyridine-3-carboxamide] | 3000 to 10000 | –
COc1ccc(-c2ccc(C(=O)NS(=O)(=O)c3cccnc3N)c(N3C[C@@H](C)CC3(C)C)n2)cc1 [Compound 2667, N-[(2-amino-3-pyridyl)sulfonyl]-6-(4-methoxyphenyl)-2-[(4S)-2,2,4-trimethylpyrrolidin-1-yl]pyridine-3-carboxamide] | < 3000 | –
Cc1nn(C)c(C)c1-c1ccc(C(=O)NS(=O)(=O)c2cccnc2N)c(N2C[C@@H](C)CC2(C)C)n1 [Compound 2668, N-[(2-amino-3-pyridyl)sulfonyl]-6-(1,3,5-trimethylpyrazol-4-yl)-2-[(4S)-2,2,4-trimethylpyrrolidin-1-yl]pyridine-3-carboxamide] | 3000 to 10000 | –
Cc1cc(C(=O)c2ccccc2)cc(C)c1Oc1nc(-c2cc(F)cc(OCC(C)C)c2)ccc1C(=O)NS(=O)(=O)c1cccc(N)n1 [Compound 2669, N-[(6-amino-2-pyridyl)sulfonyl]-2-(4-benzoyl-2,6-dimethyl-phenoxy)-6-(3-fluoro-5-isobutoxy-phenyl)pyridine-3-carboxamide] | < 3000 | –
C[C@@H]1CN(c2nc(-n3ccc(OCC(C)(C)C)n3)ccc2C(=O)NS(=O)(=O)c2cccnc2N2CCCCC2)C(C)(C)C1 [Compound 2670, 6-[3-(2,2-dimethylpropoxy)pyrazol-1-yl]-N-[[2-(1-piperidyl)-3-pyridyl]sulfonyl]-2-[(4S)-2,2,4-trimethylpyrrolidin-1-yl]pyridine-3-carboxamide] | < 3000 | –
Cc1cc(I)cc(C)c1Oc1nc(-c2cc(F)cc(OCC(C)C)c2)ccc1C(=O)NS(=O)(=O)c1cccc(N)n1 [Compound 2671, N-[(6-amino-2-pyridyl)sulfonyl]-6-(3-fluoro-5-isobutoxy-phenyl)-2-(4-iodo-2,6-dimethyl-phenoxy)pyridine-3-carboxamide] | < 3000 | –
CC(C)COc1cc(F)cc(-c2nc(N3C[C@@H](C)CC3(C)C)cnc2C(=O)NS(=O)(=O)c2cccc(N)n2)c1 [Compound 2673, N-[(6-amino-2-pyridyl)sulfonyl]-3-(3-fluoro-5-isobutoxy-phenyl)-5-[(4S)-2,2,4-trimethylpyrrolidin-1-yl]pyrazine-2-carboxamide] | < 3000 | –
C[C@@H]1CN(c2nc(-n3ccc(-c4ccccc4)n3)ccc2C(=O)NS(=O)(=O)C2CC2)C(C)(C)C1 [Compound 2674, N-cyclopropylsulfonyl-6-(3-phenylpyrazol-1-yl)-2-[(4S)-2,2,4-trimethylpyrrolidin-1-yl]pyridine-3-carboxamide] | < 3000 | –
CC(C)COc1cc(F)cc(-c2ccc(C(=O)NS(=O)(=O)N[C@@H]3CCCNC3)c(N3C[C@@H](C)CC3(C)C)n2)c1 [Compound 2677, 6-(3-fluoro-5-isobutoxy-phenyl)-N-[[(3R)-3-piperidyl]sulfamoyl]-2-[(4S)-2,2,4-trimethylpyrrolidin-1-yl]pyridine-3-carboxamide] | < 3000 | –
CC(C)COc1cc(F)cc(-c2cc(N3C[C@@H](C)CC3(C)C)c(C(=O)NS(=O)(=O)c3cccc(N)n3)cn2)c1 [Compound 2679, N-[(6-amino-2-pyridyl)sulfonyl]-6-(3-fluoro-5-isobutoxy-phenyl)-4-[(4S)-2,2,4-trimethylpyrrolidin-1-yl]pyridine-3-carboxamide] | 3000 to 10000 | –
C[C@@H]1CN(c2nc(C3=CC4CCC3C4)ccc2C(=O)NS(=O)(=O)c2cccc(N)n2)C(C)(C)C1 (stereo partly drawn) [Compound 2703] | – | EC30: < 3000 nM
CC[C@@H](C)Oc1ccn(-c2ccc(C(=O)NS(=O)(=O)c3cccnc3N)c(N3C[C@@H](C)CC3(C)C)n2)n1 [Compound 2705] | – | EC30 (F508del CFTR modulator activity, compounds of Table 1): +++ (“+++” means <3 uM)

Second part, led by results:

EC30 [1] [nM] | SMILES | also measured
< 3000 | C[C@@H]1CC[C@H](C)N1c1nc(-n2ccc(-c3ccccc3)n2)ccc1C(=O)NS(=O)(=O)C1CC1 [Compound 2676, N-cyclopropylsulfonyl-2-[(2S,5R)-2,5-dimethylpyrrolidin-1-yl]-6-(3-phenylpyrazol-1-yl)pyridine-3-carboxamide] | –
3000 to 10000 | CCOCCOc1ccc(C(=O)NS(=O)(=O)c2cccc(N)n2)c(N2C[C@@H](C)CC2(C)C)n1 [Compound 2678, N-[(6-amino-2-pyridyl)sulfonyl]-6-(2-ethoxyethoxy)-2-[(4S)-2,2,4-trimethylpyrrolidin-1-yl]pyridine-3-carboxamide] | –
3000 to 10000 | C[C@@H]1CN(c2ncccc2C(=O)NS(=O)(=O)N2CC[C@@H](NCc3ccc(F)c(OC(F)(F)F)c3)C2)C(C)(C)C1 [Compound 2680] | –
< 3000 | CCOCCOCCN(C)c1ncc(-c2ccc(C(=O)NS(=O)(=O)c3cccc(N)n3)c(N3C[C@@H](C)CC3(C)C)n2)cc1C [Compound 2681] | –
< 3000 | CCOCCN(C)c1ncc(-c2ccc(C(=O)NS(=O)(=O)c3cccc(N)n3)c(N3C[C@@H](C)CC3(C)C)n2)cc1C [Compound 2682] | –
< 3000 | CCOCCNc1ncc(-c2ccc(C(=O)NS(=O)(=O)c3cccc(N)n3)c(N3C[C@@H](C)CC3(C)C)n2)cc1C [Compound 2683] | –
< 3000 | Cc1cc(-c2ccc(C(=O)NS(=O)(=O)c3cccc(N)n3)c(N3C[C@@H](C)CC3(C)C)n2)cnc1N(C)C(C)C [Compound 2684] | –
< 3000 | Cc1cc(-c2ccc(C(=O)NS(=O)(=O)c3cccc(N)n3)c(N3C[C@@H](C)CC3(C)C)n2)cnc1NC(C)C [Compound 2685] | –
3000 to 10000 | C[C@@H]1CN(c2nc(-c3ccc(O[C@@H](C)CO)nc3)ccc2C(=O)NS(=O)(=O)c2cccnc2N)C(C)(C)C1 [Compound 2687] | –
< 3000 | COc1ccc(S(=O)(=O)NC(=O)c2ccc(-c3ccc(OC(C)C)nc3)nc2N2C[C@@H](C)CC2(C)C)c(N)n1 [Compound 2688] | –
< 3000 | C[C@@H]1CN(c2nc(-n3ccc(OCC4CC4)n3)ccc2C(=O)NS(=O)(=O)c2cccnc2N)C(C)(C)C1 [Compound 2691] | –
3000 to 10000 | C[C@@H]1CN(c2ncccc2C(=O)NS(=O)(=O)N2CCCC(NCc3ccc(OC(C)(C)C)cc3)C2)C(C)(C)C1 (stereo partly drawn) [Compound 2692] | –
3000 to 10000 | C[C@@H]1CN(c2ncccc2C(=O)NS(=O)(=O)N2CC[C@@H](NCc3ccc(OC(C)(C)C)cc3)C2)C(C)(C)C1 [Compound 2693] | –
< 3000 | Cc1cn(-c2ccc(C(=O)NS(=O)(=O)c3cccnc3N)c(N3C[C@@H](C)CC3(C)C)n2)nc1OCC(C)(C)C [Compound 2694] | –
< 3000 | C[C@@H]1CN(c2nc(-n3ccc(C4CC4)n3)ccc2C(=O)NS(=O)(=O)c2cccnc2N)C(C)(C)C1 [Compound 2695] | –
< 3000 | C[C@@H]1CN(c2nc(-n3ccc(-c4ccccc4)n3)ccc2C(=O)NS(=O)(=O)c2cccnc2N)C(C)(C)C1 [Compound 2696] | –
< 3000 | CCOCCOc1ccc(C(=O)NS(=O)(=O)c2cccnc2N)c(N2C[C@@H](C)CC2(C)C)n1 [Compound 2699] | –
< 3000 | CCOCCOCCOc1ccc(C(=O)NS(=O)(=O)c2cccnc2N)c(N2C[C@@H](C)CC2(C)C)n1 [Compound 2700] | –
< 3000 | Cc1cc(C)cc(-c2ccc(C(=O)NS(=O)(=O)c3cccc(OCCC(C)C)n3)c(N3C[C@@H](C)CC3(C)C)n2)c1 [Compound 2701] | –
< 3000 | CC[C@@H](C)Oc1ccn(-c2ccc(C(=O)NS(=O)(=O)c3cccnc3N)c(N3C[C@@H](C)CC3(C)C)n2)n1 [Compound 2704] | –
